Data on one molecule can be found in patent US12642885B2, “Hemostatic and wound healing turmeric-polymer composite materials” (priority 2021, dated 2026).

Experiment [1] concerns blood clotting. Kind of experiment: Effect of curcumin alone on blood clotting. An excerpt: Turmeric powder is the dried powdered rhizomes of Curcuma longa of the ginger family. Turmeric powder comprises 60-70% carbohydrates, 6-13% water, 6-8% protein, 5-10% fat, 3-7% dietary minerals, 3-7% essential oils such as turmerone and germacrone, 2-7% dietary fiber, and 1-6% curcuminoids. (including curcumin). […] The turmeric powder may be passed through a 100 mesh (149 micron) sieve such that the resulting particles are smaller than 149 microns in diameter. Generally, turmeric powder is present in the suspension at a concentration between 0.1 g per mL and 2 g per ml. In one embodiment, the concentration is between 0.1 g per mL and 1 g per mL. In yet another embodiment, the concentration is between 0.1 g per mL and 0.5 g per mL.

For a further experiment, the system named is most cancer cell lines. Conditions: cited from earlier work.
In experiment [2] the test system is blood clotting. Conditions: Kim et al., BMB Rep. 2012; cited from earlier work.

For the molecule `COc1cc(/C=C/C(=O)CC(=O)/C=C/c2ccc(O)c(OC)c2)ccc1O` [curcumin], the “promotion of blood clotting” value with blood clotting [1] is reported as “not found to promote blood clotting”. Further, the anti-cancer activity result with most cancer cell lines is “moderate”. Also, in the experiment on most cancer cell lines (most cancer cell lines, peer reviewed literature), the IC50 (as a rule, the point on the concentration scale where inhibition reaches its midpoint) was 20 µM. In addition, the anticoagulant activity result in the experiment with blood clotting [2] is recorded as “well-known anticoagulant”.
